According to patent US10508118B2, “Pyrimidopyrrole compounds, method for preparing the same, pharmaceutical compositions comprising the same and uses thereof” (Xiamen University, priority 2015, dated 2019):
Like-named read-outs stand apart in the source and are kept apart here.

Experiments:
Format in all cases: cell-based
[1] = biological target: T1, EML4-ALK (L1196M)-BaF3 (Homo sapiens, UniProt Q9UM73, L1196M); experiment: Growth inhibition of EML4-ALK (L1196M) transformed BaF3 cells (MTS); details: 48 hours
T1 construct: expressed in transfected cells; host or cells: Ba/F3 cells; the other entry of the earlier key: EML4 (Q9HC35, Echinoderm microtubule-associated protein-like 4)
Protocol: (§1) If compounds can inhibit the activity of ALK kinase or the activity of ALK signaling pathway, they can inhibit the growth of ALK transformed Ba/F3 cells. […] The broad-spectrum toxicity of compounds can be evaluated by determining the effect of the compounds on the growth of wild type BaF3 cells.
(§2) 1) Medium: DMEM (Dulbecco's modified eagle medium) or RPMI1640 (containing 10% fetal bovine serum, 100 μg/mL ampicillin, 100 μg/mL streptomycin).)
(§3) Reagents: MTS solution (2 mg/mL MTS (3-(4,5-dimethylthiazol-2-yl)-5-(3-carboxymethoxyphenyl)-2-(4-sulfophenyl)-2H-tetrazolium, inner salt); 100 μg/mL PES ([…])).
(§4) 3) Test of compound: Transformed Ba/F3 cells (EML4-ALK-BaF3, EML4-ALK(L1196M)-BaF3, NPM-ALK-BaF3) (2×10^4/well) were distributed into 96-well plates, with volume of cell sap of 90 μL, 10 μL of compounds in gradient concentration (the highest concentration 10 was μM, followed by 1/3 step by step dilution, a total of 8 concentrations were set, the system contained 0.1% DMSO (dimethyl sulfoxide)). The cell plates mixed with compounds were cultured in a cell incubator (37° C.; 5% CO2) for 48 hours, and the added 20 μL of MTS reaction solution, mixed and incubated in cell incubator (37° C.; 5% CO2) for 1-4 hours. The OD value at a wavelength of 490 nm was measured using eliasa (VARIOSKAN FLASH, Thermo). Three parallels were set up for each group, with a final concentration of 0.1% DMSO as negative control, and with medium without cells and compounds as blank control.
(§5) 4) Calculation of IC50 value: the semi inhibitory concentration of the compound acting on the cells was calculated using GradPad Prism 5 software according to the cell inhibitory rate measured.

[2] = biological target: T2, EML4-ALK-BaF3 (Homo sapiens, UniProt Q9UM73); experiment: Growth inhibition of EML4-ALK transformed BaF3 cells (MTS); details: for IC50: EML4-ALK-BaF3 cells, 48 hours, MTS
T2 construct: expressed in transfected cells; host or cells: Ba/F3 cells; the other entry of the earlier key: EML4 (Q9HC35, Echinoderm microtubule-associated protein-like 4)
Protocol: as §1, §2, §3, §4, §5

[3] = tested on: wild type BaF3; experiment: Growth inhibition of wild type BaF3 cells (broad-spectrum toxicity); details: Mus musculus, BaF3, 48 h, MTS
Protocol: (§6) The activity of compounds against ALK kinase was evaluated by inhibiting the growth of cellular ALK kinase EML4-ALK-BaF3, EML4-ALK (L1196M)-BaF3, NPM-ALK-BaF3, and wild type BaF3 (Proc. Natl. Acad. Sci. USA., 2006, 103, 3153-8.) The growth of cellular ALK kinase EML4-ALK-BaF3, EML4-ALK(L1196M)-BaF3, and NPM-ALK-BaF3 depends on their kinase activity. If compounds can inhibit the activity of ALK kinase or the activity of ALK signaling pathway, they can inhibit the growth of ALK transformed Ba/F3 cells. […] The broad-spectrum toxicity of compounds can be evaluated by determining the effect of the compounds on the growth of wild type BaF3 cells.
as §2, §3
as §4, with “control. The inhibition rate of cell growth was calculated by the following formula: Cell inhibition rate %=1−(OD experimental group−OD blank group)/(OD negative group−OD blank group)*100%” for “control.”
as §5

[4] = biological target: T3, NPM-ALK-BaF3 (Homo sapiens, UniProt Q9UM73); experiment: Growth inhibition of NPM-ALK transformed BaF3 cells (MTS); details: 48 hours
T3 construct: expressed in transfected cells; host or cells: Ba/F3 cells; the other entry of the earlier key: NPM1 (P06748, Nucleophosmin)
Protocol: as §6, §2, §3
as §4, with “control. The inhibition rate of cell growth was calculated by the following formula: Cell inhibition rate %=1−(OD experimental group−OD blank group)/(OD negative group−OD blank group)*100%” for “control.”
as §5

[5] = Table 11, read-out: EML4-ALK (L1196M) (IC50 nM)
[6] = Table 12, read-out: L1196M (IC50 nM)

Row | Structure (SMILES) | IC50 [1, 5] | IC50 ([2]; Table 11) | IC50 ([4]; Table 11) | targeting selectivity ([2]; ratio of IC50 between wild-type BaF3 and ALK transformed BaF3 cells) | IC50 [1, 6] | IC50 ([2]; Table 12) | IC50 ([4]; Table 12) | IC50 ([3]; Table 11) | IC50 ([3]; Table 12)
1 | COC(=O)c1ccccc1Nc1nc(Nc2ccc(N3CCC(O)CC3)nc2)nc2cc[nH]c12 [IG-18] | 4370 nM | 4680 nM | 8760 nM | – | – | – | – | > 10000 nM | –
2 | CCC(C)OC(=O)c1ccccc1Nc1nc(Nc2ccc(N3CCN(C)CC3)cc2OC)nc2cc[nH]c12 (stereo not drawn) [IH-1] | 916 nM | 1120 nM | 1560 nM | – | – | – | – | 2070 nM | –
3 | CCC(C)OC(=O)c1ccccc1Nc1nc(Nc2ccc(N3CCC(O)CC3)cc2)nc2cc[nH]c12 (stereo not drawn) [IH-2] | 40400 nM | > 10000 nM | > 10000 nM | – | – | – | – | > 10000 nM | –
4 | CCC(C)OC(=O)c1ccccc1Nc1nc(Nc2ccc(N3CCC(N4CCN(C)CC4)CC3)cc2OC)nc2cc[nH]c12 (stereo not drawn) [IH-3] | 502 nM | ~446 nM | ~859 nM | – | – | – | – | ~949 nM | –
5 | COC(=O)c1cccc(Nc2nc(Nc3ccc(N4CCN(C)CC4)cc3OC)nc3cc[nH]c23)c1 [II-1] | ~2630 nM | 1490 nM | 1640 nM | – | – | – | – | ~2710 nM | –
6 | COC(=O)c1cccc(Nc2nc(Nc3ccc(N4CCC(N5CCN(C)CC5)CC4)cc3OC)nc3cc[nH]c23)c1 [II-2] | ~2560 nM | 1810 nM | ~2600 nM | – | – | – | – | ~3030 nM | –
7 | COC(=O)c1cccc(Nc2nc(Nc3ccc(N4CCC(O)CC4)cc3)nc3cc[nH]c23)c1 [II-3] | 6160 nM | 7470 nM | 4910 nM | – | – | – | – | 9610 nM | –
8 | COC(=O)c1cccc(Nc2nc(Nc3ccc(N4CCOCC4)cc3)nc3cc[nH]c23)c1 [II-5] | 488 nM | 238 nM | 1290 nM | good targeting selectivity | – | – | – | 1060 nM | –
9 | COC(=O)c1cccc(Nc2nc(Nc3ccc(N4CCC(N5CCCC5)CC4)cc3OC)nc3cc[nH]c23)c1 [II-6] | ~7400 nM | 4960 nM | 6720 nM | – | – | – | – | ~8220 nM | –
10 | COc1cc(N2CCN(C)CC2)ccc1Nc1nc(Nc2ccccc2SC)c2c(ccn2C)n1 [IIA-1] | – | – | – | – | ~2560 nM | ~909 nM | 512 nM | – | 1550 nM
11 | COc1cc(N2CCC(N3CCN(C)CC3)CC2)ccc1Nc1nc(Nc2ccccc2SC)c2c(ccn2C)n1 [IIA-2] | – | – | – | – | 1620 nM | ~1110 nM | 1400 nM | – | ~883 nM
12 | CSc1ccccc1Nc1nc(Nc2ccc(N3CCC(O)CC3)cc2)nc2ccn(C)c12 [IIA-3] | – | – | – | – | 161 nM | 321 nM | 456 nM | – | 376 nM
13 | CSc1ccccc1Nc1nc(Nc2ccc(S(N)(=O)=O)cc2)nc2ccn(C)c12 [IIA-4] | – | – | – | – | 1320 nM | 1300 nM | 2700 nM | – | 2570 nM
14 | CCOc1cc(C(=O)N2CCC(N3CCN(C)CC3)CC2)ccc1Nc1nc(Nc2ccccc2SC)c2c(ccn2C)n1 [IIA-5] | – | – | – | – | ~883 nM | ~877 nM | 519 nM | – | ~336 nM
15 | CSc1ccccc1Nc1nc(Nc2ccc(N3CCN(C)CC3)cc2)nc2ccn(C)c12 [IIA-6] | – | – | – | – | 978 nM | 644 nM | 536 nM | – | 1370 nM

Further lines, with some results ahead:

Row | IC50 [1, 5] | IC50 ([2]; Table 11) | IC50 ([4]; Table 11) | targeting selectivity ([2]; ratio of IC50 between wild-type BaF3 and ALK transformed BaF3 cells) | IC50 [1, 6] | IC50 ([2]; Table 12) | IC50 ([4]; Table 12) | Structure (SMILES) | IC50 ([3]; Table 11) | IC50 ([3]; Table 12)
16 | – | – | – | – | ~2800 nM | 1720 nM | ~2510 nM | COc1cc(N2CCN(C)CC2)ccc1Nc1nc(Nc2ccccc2SC(C)C)c2c(ccn2C)n1 [IIB-1] | – | 1930 nM
17 | – | – | – | – | ~853 nM | ~949 nM | ~940 nM | COc1cc(N2CCC(N3CCN(C)CC3)CC2)ccc1Nc1nc(Nc2ccccc2SC(C)C)c2c(ccn2C)n1 [IIB-2] | – | 606 nM
18 | – | – | – | – | 917 nM | 489 nM | 653 nM | CC(C)Sc1ccccc1Nc1nc(Nc2ccc(N3CCC(O)CC3)cc2)nc2ccn(C)c12 [IIB-3] | – | 1040 nM
19 | – | – | – | – | 4210 nM | 3020 nM | 4570 nM | CC(C)Sc1ccccc1Nc1nc(Nc2ccc(S(N)(=O)=O)cc2)nc2ccn(C)c12 [IIB-4] | – | 4880 nM
20 | – | – | – | – | ~2780 nM | ~2720 nM | ~1370 nM | CCOc1cc(C(=O)N2CCC(N3CCN(C)CC3)CC2)ccc1Nc1nc(Nc2ccccc2SC(C)C)c2c(ccn2C)n1 [IIB-5] | – | ~2870 nM
